Tested on: Chilo suppressalis
Experiment: Rice field trials, Chilo suppressalis insect damage / white heads (Example 1, Trials 3-4, Thailand)
Format: in vivo
Conditions: for percent reduction in insect damage relative to untreated control: UTC given as 0
Method: All applications were made with an EC formulation containing 650 g/L of pelargonic acid (e.g., 685 g/L of 95% purity pelargonic acid), an anionic emulsifier and a branched fatty acid ester solvent. […] Trials 1 4 assessing the use of pelargonic acid for controlling Chilo suppressalis in rice were conducted in Spain and Thailand. Application A was made to the crops at the beginning of infestations; for these trials, Stage BBCH 59; Application B was made 14 days after Application A. Trial 3 was conducted in Thailand using a water volume of 500 L/ha of water per application unless otherwise indicated. Insect Damage ([…] %), Insect Damage (Number) and Phytotoxicity were assessed at various treatment evaluation intervals. Population levels were recorded by counting number of rice plants per hill, number of white head (damage from rice stem borer) followed by calculation of % insect damage. Trial 4 was conducted in Thailand using a water volume of 500 L/ha of water per application unless otherwise indicated. Insect Damage ([…] %), Insect Damage (Number) and Phytotoxicity were assessed at various treatment evaluation intervals. Population levels were recorded by counting number of rice plants per hill, number of white head (damage from rice stem borer) followed by calculation of % insect damage.

[1] = Trial 3, 21 DAB, water volume 500 L/ha, rate in treatment name, Prevathon 0.5 L/ha, listed as PA 2600 g/ha
[2] = Trial 4, 0 DAA, water volume 200 L/ha
[3] = Trial 4, 0 DAB, water volume 200 L/ha
[4] = Trial 4, 0 DAB, water volume 500 L/ha, rate in treatment name, Prevathon 0.5 L/ha, listed as PA 585 g/ha
[5] = Trial 4, 0 DAB, water volume 500 L/ha, rate in treatment name, Prevathon 0.5 L/ha, listed as PA 975 g/ha
[6] = Trial 4, 0 DAB, water volume 500 L/ha, rate in treatment name, Prevathon 0.5 L/ha, listed as PA 1300 g/ha
[7] = Trial 4, 0 DAB, water volume 500 L/ha, rate in treatment name, Prevathon 0.5 L/ha, listed as PA 2600 g/ha
[8] = Trial 4, 7 DAA, water volume 200 L/ha
[9] = Trial 4, 7 DAA, water volume 500 L/ha, rate in treatment name, Prevathon 0.5 L/ha, listed as PA 585 g/ha
[10] = Trial 4, 7 DAA, water volume 500 L/ha, rate in treatment name, Prevathon 0.5 L/ha, listed as PA 975 g/ha
[11] = Trial 4, 7 DAA, water volume 500 L/ha, rate in treatment name, Prevathon 0.5 L/ha, listed as PA 1300 g/ha
[12] = Trial 4, 7 DAA, water volume 500 L/ha, rate in treatment name, Prevathon 0.5 L/ha, listed as PA 2600 g/ha
[13] = Trial 4, 7 DAB, water volume 200 L/ha
[14] = Trial 4, 7 DAB, water volume 500 L/ha, rate in treatment name, Prevathon 0.5 L/ha, listed as PA 585 g/ha
[15] = Trial 4, 7 DAB, water volume 500 L/ha, rate in treatment name, Prevathon 0.5 L/ha, listed as PA 975 g/ha
[16] = Trial 4, 7 DAB, water volume 500 L/ha, rate in treatment name, Prevathon 0.5 L/ha, listed as PA 1300 g/ha
[17] = Trial 4, 7 DAB, water volume 500 L/ha, rate in treatment name, Prevathon 0.5 L/ha, listed as PA 2600 g/ha
[18] = Trial 4, 10 DAA, water volume 200 L/ha
[19] = Trial 4, 10 DAA, water volume 500 L/ha, rate in treatment name, Prevathon 0.5 L/ha, listed as PA 585 g/ha
[20] = Trial 4, 10 DAA, water volume 500 L/ha, rate in treatment name, Prevathon 0.5 L/ha, listed as PA 975 g/ha
[21] = Trial 4, 10 DAA, water volume 500 L/ha, rate in treatment name, Prevathon 0.5 L/ha, listed as PA 1300 g/ha
[22] = Trial 4, 10 DAA, water volume 500 L/ha, rate in treatment name, Prevathon 0.5 L/ha, listed as PA 2600 g/ha
[23] = Trial 4, 10 DAB, water volume 200 L/ha
[24] = Trial 4, 10 DAB, water volume 500 L/ha, rate in treatment name, Prevathon 0.5 L/ha, listed as PA 585 g/ha
[25] = Trial 4, 10 DAB, water volume 500 L/ha, rate in treatment name, Prevathon 0.5 L/ha, listed as PA 975 g/ha
[26] = Trial 4, 10 DAB, water volume 500 L/ha, rate in treatment name, Prevathon 0.5 L/ha, listed as PA 1300 g/ha
[27] = Trial 4, 10 DAB, water volume 500 L/ha, rate in treatment name, Prevathon 0.5 L/ha, listed as PA 2600 g/ha
[28] = Trial 4, 14 DAB, water volume 200 L/ha
[29] = Trial 4, 14 DAB, water volume 500 L/ha, rate in treatment name, Prevathon 0.5 L/ha, listed as PA 585 g/ha
[30] = Trial 4, 14 DAB, water volume 500 L/ha, rate in treatment name, Prevathon 0.5 L/ha, listed as PA 975 g/ha
[31] = Trial 4, 14 DAB, water volume 500 L/ha, rate in treatment name, Prevathon 0.5 L/ha, listed as PA 1300 g/ha
[32] = Trial 4, 14 DAB, water volume 500 L/ha, rate in treatment name, Prevathon 0.5 L/ha, listed as PA 2600 g/ha
[33] = Trial 4, 21 DAB, water volume 200 L/ha
[34] = Trial 4, 21 DAB, water volume 500 L/ha, rate in treatment name, Prevathon 0.5 L/ha, listed as PA 585 g/ha
[35] = Trial 4, 21 DAB, water volume 500 L/ha, rate in treatment name, Prevathon 0.5 L/ha, listed as PA 975 g/ha
[36] = Trial 4, 21 DAB, water volume 500 L/ha, rate in treatment name, Prevathon 0.5 L/ha, listed as PA 1300 g/ha
[37] = Trial 4, 21 DAB, water volume 500 L/ha, rate in treatment name, Prevathon 0.5 L/ha, listed as PA 2600 g/ha

## CCCCCCCCC(=O)O [PA 650 g/ha, pelargonic acid]
[1]
  DAMINS % (insect damage, % white heads): 0.19%
  DAMINS (number): mean number of insect damage (white head symptoms): 0.75
[2]
  DAMINS (number): mean number of insect damage (white head symptoms): 5.5
  percent reduction in insect damage relative to untreated control: 0%
Trial 4, 0 DAA, water volume 500 L/ha, rate in treatment name, Prevathon 0.5 L/ha
  percent reduction in insect damage relative to untreated control: 0%
Trial 4, 0 DAA, water volume 500 L/ha, rate in treatment name, Prevathon 0.5 L/ha, listed as PA 585 g/ha
  DAMINS (number): mean number of insect damage (white head symptoms): 4.57
Trial 4, 0 DAA, water volume 500 L/ha, rate in treatment name, Prevathon 0.5 L/ha, listed as PA 975 g/ha
  DAMINS (number): mean number of insect damage (white head symptoms): 5.19
Trial 4, 0 DAA, water volume 500 L/ha, rate in treatment name, Prevathon 0.5 L/ha, listed as PA 1300 g/ha
  DAMINS (number): mean number of insect damage (white head symptoms): 5.23
Trial 4, 0 DAA, water volume 500 L/ha, rate in treatment name, Prevathon 0.5 L/ha, listed as PA 2600 g/ha
  DAMINS (number): mean number of insect damage (white head symptoms): 5.07
[3]
  DAMINS (number): mean number of insect damage (white head symptoms): 1.36
  percent reduction in insect damage relative to untreated control: 71.53%
[4]
  percent reduction in insect damage relative to untreated control: 22.87%
  DAMINS (number): mean number of insect damage (white head symptoms): 3.57
[5]
  percent reduction in insect damage relative to untreated control: 28.25%
  DAMINS (number): mean number of insect damage (white head symptoms): 3.34
[6]
  percent reduction in insect damage relative to untreated control: 38.54%
  DAMINS (number): mean number of insect damage (white head symptoms): 2.88
[7]
  percent reduction in insect damage relative to untreated control: 67.46%
  DAMINS (number): mean number of insect damage (white head symptoms): 1.49
[8]
  DAMINS (number): mean number of insect damage (white head symptoms): 2.94
  percent reduction in insect damage relative to untreated control: 62.66%
[9]
  percent reduction in insect damage relative to untreated control: 15.96%
  DAMINS (number): mean number of insect damage (white head symptoms): 6.67
[10]
  percent reduction in insect damage relative to untreated control: 22.58%
  DAMINS (number): mean number of insect damage (white head symptoms): 6.09
[11]
  percent reduction in insect damage relative to untreated control: 44.41%
  DAMINS (number): mean number of insect damage (white head symptoms): 4.38
[12]
  percent reduction in insect damage relative to untreated control: 51.10%
  DAMINS (number): mean number of insect damage (white head symptoms): 3.87
[13]
  DAMINS (number): mean number of insect damage (white head symptoms): 0.76
  percent reduction in insect damage relative to untreated control: 80.70%
[14]
  percent reduction in insect damage relative to untreated control: 27.16%
  DAMINS (number): mean number of insect damage (white head symptoms): 2.86
[15]
  percent reduction in insect damage relative to untreated control: 36.66%
  DAMINS (number): mean number of insect damage (white head symptoms): 2.52
[16]
  percent reduction in insect damage relative to untreated control: 49.64%
  DAMINS (number): mean number of insect damage (white head symptoms): 1.93
[17]
  percent reduction in insect damage relative to untreated control: 66.66%
  DAMINS (number): mean number of insect damage (white head symptoms): 1.32
[18]
  DAMINS (number): mean number of insect damage (white head symptoms): 1.76
  percent reduction in insect damage relative to untreated control: 80.59%
[19]
  percent reduction in insect damage relative to untreated control: 40.99%
  DAMINS (number): mean number of insect damage (white head symptoms): 5.33
[20]
  percent reduction in insect damage relative to untreated control: 44.26%
  DAMINS (number): mean number of insect damage (white head symptoms): 4.99
[21]
  percent reduction in insect damage relative to untreated control: 56.19%
  DAMINS (number): mean number of insect damage (white head symptoms): 3.94
[22]
  percent reduction in insect damage relative to untreated control: 72.62%
  DAMINS (number): mean number of insect damage (white head symptoms): 2.48
[23]
  DAMINS (number): mean number of insect damage (white head symptoms): 1.06
  percent reduction in insect damage relative to untreated control: 77.49%
[24]
  percent reduction in insect damage relative to untreated control: 22.53%
  DAMINS (number): mean number of insect damage (white head symptoms): 3.71
[25]
  percent reduction in insect damage relative to untreated control: 51.13%
  DAMINS (number): mean number of insect damage (white head symptoms): 2.35
[26]
  percent reduction in insect damage relative to untreated control: 61.44%
  DAMINS (number): mean number of insect damage (white head symptoms): 1.86
[27]
  percent reduction in insect damage relative to untreated control: 74.82%
  DAMINS (number): mean number of insect damage (white head symptoms): 1.19
[28]
  DAMINS (number): mean number of insect damage (white head symptoms): 0.9
  percent reduction in insect damage relative to untreated control: 80.46%
[29]
  percent reduction in insect damage relative to untreated control: 19.69%
  DAMINS (number): mean number of insect damage (white head symptoms): 3.78
[30]
  percent reduction in insect damage relative to untreated control: 40.42%
  DAMINS (number): mean number of insect damage (white head symptoms): 2.74
[31]
  percent reduction in insect damage relative to untreated control: 46.02%
  DAMINS (number): mean number of insect damage (white head symptoms): 2.54
[32]
  percent reduction in insect damage relative to untreated control: 76.77%
  DAMINS (number): mean number of insect damage (white head symptoms): 1.1
[33]
  DAMINS (number): mean number of insect damage (white head symptoms): 1.24
  percent reduction in insect damage relative to untreated control: 74.20%
[34]
  percent reduction in insect damage relative to untreated control: 29.88%
  DAMINS (number): mean number of insect damage (white head symptoms): 3.3
[35]
  percent reduction in insect damage relative to untreated control: 37.44%
  DAMINS (number): mean number of insect damage (white head symptoms): 2.96
[36]
  percent reduction in insect damage relative to untreated control: 52.85%
  DAMINS (number): mean number of insect damage (white head symptoms): 2.26
[37]
  percent reduction in insect damage relative to untreated control: 71.12%
  DAMINS (number): mean number of insect damage (white head symptoms): 1.38
